Measurements as given in ChEMBL document CHEMBL5370677, “Emopamil-Binding Protein Inhibitors for Treating Multiple Sclerosis” (ACS Med Chem Lett, 2023).

Target: 3-beta-hydroxysteroid-Delta(8),Delta(7)-isomerase (Homo sapiens, UniProt Q15125)
Assay: Inhibition of EBP derived from HEK293T cells using zymosterol-d5 as substrate preincubated for 30 mins followed by substrate addition measured after 4 hrs by LC-APCI MRM MS analysis
Type: cell-based

Chain of 3-beta-hydroxysteroid-Delta(8),Delta(7)-isomerase (Q15125 whole entry): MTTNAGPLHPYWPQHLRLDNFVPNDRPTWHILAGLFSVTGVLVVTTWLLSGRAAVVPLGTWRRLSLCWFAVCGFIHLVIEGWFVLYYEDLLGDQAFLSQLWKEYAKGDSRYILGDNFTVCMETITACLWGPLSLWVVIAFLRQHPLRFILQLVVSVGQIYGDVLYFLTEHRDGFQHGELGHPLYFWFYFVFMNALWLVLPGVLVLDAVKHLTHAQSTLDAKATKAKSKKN

Structure (SMILES)	IC50 [nM]
O=S(=O)(c1coc(C(F)(F)F)c1)N1CCC2(CCC(N3CC4(COC4)C3)C2)CC1 (stereo unspecified)	< 100
O=S(=O)(c1ccc(F)cc1)N1CCC2(CCC(N3CC4(COC4)C3)C2)CC1 (stereo unspecified)	< 100
Cc1nc(C(F)(F)F)ncc1S(=O)(=O)N1CCC2(CC1)CC(N(C)C1CC3(COC3)C1)CO2 (stereo unspecified)	< 100
O=S(=O)(c1ccc2c(c1)OCCO2)N1CCC2(CCC(N3CC4(COC4)C3)C2)CC1 (stereo unspecified)	< 100

Next, values leading:

IC50 [nM]	Structure (SMILES)
< 100	Cn1nc(C2CC2)cc1S(=O)(=O)N1CCC2(CC1)CC(NC1CCOCC1)C2
< 100	COc1nccc(S(=O)(=O)N2CCC3(CCC(N4CCOCC4)C3)CC2)c1F (stereo unspecified)
